Data published in patent US11331393B2, “Renal-homing peptide conjugates and methods of use thereof” (BLAZE BIOSCIENCE, INC., priority 2017, dated 2022).
Ends that are not written are not given here.

Test system: kidneys
Settings: unlabeled competitor 100 or 2000 nmol co-injected with 2 nmol SEQ ID NO: 4-AF647; 1 hour

In the case of KKEEEKKEEEKKEEEKK [SEQ ID NO: 571], the “competition with uptake of the peptide of SEQ ID NO: 4 in kidneys” value is reported as “failed to compete”.
